Assay results as given in ChEMBL document CHEMBL2074341, “Biliary excretion of flavopiridol and its glucuronides in the isolated perfused rat liver: role of multidrug resistance protein 2 (Mrp2)” (Life Sci, 2003).

Biological target: ATP-binding cassette sub-family C member 2 (Rattus norvegicus, UniProt Q63120)
Assay: TP_TRANSPORTER: transport activity, in vitro, Wistar vs TR-
Format: functional

ATP-binding cassette sub-family C member 2, sequence (Q63120 whole entry): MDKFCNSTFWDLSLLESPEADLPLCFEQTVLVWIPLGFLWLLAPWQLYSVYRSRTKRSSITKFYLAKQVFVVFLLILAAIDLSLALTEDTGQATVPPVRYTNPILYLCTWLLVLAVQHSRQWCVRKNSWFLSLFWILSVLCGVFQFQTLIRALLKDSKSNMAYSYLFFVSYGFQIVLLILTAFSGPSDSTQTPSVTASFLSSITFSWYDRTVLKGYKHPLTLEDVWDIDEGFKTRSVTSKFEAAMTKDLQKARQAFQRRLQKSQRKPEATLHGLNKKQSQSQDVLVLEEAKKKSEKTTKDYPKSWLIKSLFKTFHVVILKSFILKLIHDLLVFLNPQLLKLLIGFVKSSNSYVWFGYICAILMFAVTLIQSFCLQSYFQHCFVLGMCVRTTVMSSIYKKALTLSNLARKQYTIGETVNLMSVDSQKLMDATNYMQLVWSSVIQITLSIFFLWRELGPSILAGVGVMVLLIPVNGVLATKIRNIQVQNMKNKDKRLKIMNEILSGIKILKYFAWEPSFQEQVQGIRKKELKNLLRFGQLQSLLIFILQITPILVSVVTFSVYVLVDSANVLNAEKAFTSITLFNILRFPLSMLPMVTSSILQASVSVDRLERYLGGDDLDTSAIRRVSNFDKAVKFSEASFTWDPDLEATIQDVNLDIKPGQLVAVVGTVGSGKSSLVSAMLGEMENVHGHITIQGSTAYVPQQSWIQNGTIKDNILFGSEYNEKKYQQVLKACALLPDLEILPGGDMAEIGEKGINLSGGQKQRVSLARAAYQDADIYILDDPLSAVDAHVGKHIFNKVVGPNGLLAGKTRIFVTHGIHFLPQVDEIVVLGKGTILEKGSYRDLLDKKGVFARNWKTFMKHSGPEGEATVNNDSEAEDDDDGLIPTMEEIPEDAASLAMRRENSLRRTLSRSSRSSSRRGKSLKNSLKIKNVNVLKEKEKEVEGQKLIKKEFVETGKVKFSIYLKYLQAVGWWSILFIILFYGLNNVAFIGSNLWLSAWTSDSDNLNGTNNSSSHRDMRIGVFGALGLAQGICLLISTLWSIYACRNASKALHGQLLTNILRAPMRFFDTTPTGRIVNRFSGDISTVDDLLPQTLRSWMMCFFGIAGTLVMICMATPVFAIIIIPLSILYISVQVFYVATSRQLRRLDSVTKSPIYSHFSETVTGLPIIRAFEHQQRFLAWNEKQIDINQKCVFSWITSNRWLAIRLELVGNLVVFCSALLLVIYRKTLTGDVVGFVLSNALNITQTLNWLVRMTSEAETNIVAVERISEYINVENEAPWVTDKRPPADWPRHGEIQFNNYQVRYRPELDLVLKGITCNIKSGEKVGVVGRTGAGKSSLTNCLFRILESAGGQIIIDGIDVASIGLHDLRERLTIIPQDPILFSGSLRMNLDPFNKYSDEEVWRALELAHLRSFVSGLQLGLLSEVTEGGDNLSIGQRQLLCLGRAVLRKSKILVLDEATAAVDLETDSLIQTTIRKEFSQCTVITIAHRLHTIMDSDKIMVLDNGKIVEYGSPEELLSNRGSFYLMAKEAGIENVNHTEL

SMILES | Activity
CN1CC[C@H](c2c(O[C@@H]3O[C@H](C(=O)O)[C@@H](O)[C@H](O)[C@H]3O)cc(O)c3c(=O)cc(-c4ccccc4Cl)oc23)[C@H](O)C1 | substrate []
CN1CC[C@H](c2c(O)cc(O[C@@H]3O[C@H](C(=O)O)[C@@H](O)[C@H](O)[C@H]3O)c3c(=O)cc(-c4ccccc4Cl)oc23)[C@H](O)C1 | substrate []
